Results: a melting point compilation (Tetko et al.; mined from patent text by program, amines drawn as free bases though some values may be those of a salt)

First: CC(=O)OC(OC(C)=O)c1ccc(C(OC(C)=O)(C(F)(F)F)C(F)(F)F)cc1
Second: NS(=O)(=O)c1ccc(-c2c(-c3ccccc3)noc2COCC(F)(F)C(F)(F)C(F)(F)CO[N+](=O)[O-])cc1
The melting point of the first is higher: 93 to 94.6 °C for the first, 38 to 39 °C for the second.

First: COc1ccc(C(=O)CC(=O)Nc2ccc(C)cc2)cc1
Second: CCOC(=O)c1cnn(-c2ccc(Oc3ccc(C)cc3O)cc2)c1N
The melting point of the first is lower: 122 to 126 °C for the first, 142 to 144 °C for the second.

Compared with `CC(=O)c1ccc(OCCCC(=O)O)cc1F`, `O=C(O)COc1ccc(C(=O)c2ccccc2F)c(Cl)c1Cl` is higher in melting point: 110 to 111 °C for the first, 153 to 156 °C for the second.

First: CC1CNc2c(cccc2S(=O)(=O)N[C@@H](CCCNC(=N)N)C(=O)N2CC[C@@H](C)C[C@@H]2C(=O)O)C1 (stereo partly specified)
Second: COc1c(C2CCN(CCCCNC(=O)c3sc(-c4ccc(C#N)cc4)nc3C)CC2)ccc2c1CCCC2
The melting point of the first is higher: 188 to 191 °C for the first, 160 to 164 °C for the second.

First: O=C(O)c1ccc(OCCc2c(CCNS(=O)(=O)Cc3ccc(Cl)c(Cl)c3)n(C(c3ccccc3)c3ccccc3)c3ccc(Cl)cc23)cc1F
Second: Cc1cc(-n2ccnc2)c2cccc(OCc3c(Cl)ccc(S(=O)(=O)N4CCC[C@H]4C(=O)NCc4ccccn4)c3Cl)c2n1
The melting point of the first is higher: 117 to 119 °C for the first, 102 °C for the second.

First: Nc1ccnc2c(NC(=O)c3c(Cl)cccc3Cl)cccc12
Second: CC(C)(C)OC(=O)C(Nc1ccccc1)c1ccc(Cl)c(Cl)c1 (racemic)
The melting point of the first is higher: 265 to 275 °C for the first, 94 °C for the second.

First: CCCNCC(O)COc1ccccc1CCCc1cccc2c1CC(=O)N2 (stereo unspecified)
Second: CCCCc1nc2ccccn2c(=O)c1-c1ccc(Cl)c(OC)c1
The melting point of the first is higher: 122 °C for the first, 113 to 115 °C for the second.

Compared with `NC1CCN(c2nc3c(cc2F)c(=O)c(C(=O)O)cn3C2CC2)C1` (stereo unspecified), `O=C(O)c1cn(C2CC2)c2c(F)c(N3CCNCC3)c(F)cc2c1=O` is higher in melting point: 266 to 267 °C for the first, greater than 270 °C for the second.

First: O=C(O)Cc1ccc(-c2ccc(F)cc2F)cc1
Second: CC(=O)C=Cc1ccc(NS(C)(=O)=O)c(Sc2ccc(F)cc2F)c1
The melting point of the first is higher: 143 to 145 °C for the first, 119 to 120 °C for the second.

`COC(=O)CN1CCC(NC(=O)OC(C)(C)C)CC1` and `CN(Cc1ccccc1CC(=O)O)C(=O)OC(C)(C)C` fall in the same range of melting point: 96 to 98 °C for the first, 96 to 98 °C for the second.

First: O=C1CN2Cc3cc(OCCCCCCn4ccnc4)ccc3N=C2N1
Second: CCN1C(=O)C(C)(C)C(=O)N(C)c2cc(OCCCN3C(=O)C4(OCCO4)c4ccccc43)ccc21
The melting point of the first is higher: 188 to 189 °C for the first, 143 to 147 °C for the second.

First: COc1ccc(CN(C)CCCc2ccc(NC(=O)c3cccc4c(=O)c5cccc(OC)c5[nH]c34)c(C)c2)cc1OC
Second: COc1cc(CCc2ccc(C)cc2)cc(OC)c1OC
The melting point of the first is higher: 154 °C for the first, 51 to 52 °C for the second.

First: O=C(CCl)NCC1OCCO1
Second: Nc1nc(O)c2c(n1)NCC(CCc1cc(C(=O)O)n[nH]1)C2 (stereo unspecified)
The melting point of the first is lower: 61 to 63 °C for the first, greater than 260 °C for the second.

First: Cc1cccc(NP(N)(N)=O)c1
Second: Nc1cccc(Cl)c1O
The melting point of the first is higher: 159 to 162 °C for the first, 113 to 114 °C for the second.

First: CS(=O)(=O)N1CCC(Nc2ncc3cc(Cc4ccccn4)c(=O)n(C4CCCC4)c3n2)CC1
Second: Cc1cc(Nc2ccnc(Nc3ccc(S(=O)(=O)N(CCN4CCCC4)C4CCN(C)CC4)cc3)n2)ccc1F
The melting point of the first is higher: 220 to 223 °C for the first, 93 to 103 °C for the second.

Compared with `CCCCCCCCCCCc1nc2c(O)c(Cl)cc(Cl)c2cc1CCCCCCCCCC`, `CCCc1c(OCCCOc2ccc3c(c2CCC)OC(C)(CCC(=O)OC)CC3=O)ccc(C(C)=O)c1O` (stereo unspecified) is higher in melting point: 46 to 47 °C for the first, 73 to 74.5 °C for the second.

First: CCC(C)C(NC(=O)C(CS)C(F)(F)F)C(=O)O (stereo unspecified)
Second: CCC(=O)NS(=O)(=O)c1cccc(-c2cccc(-c3cc(-c4ccc(C(F)(F)F)cc4)cc(C)n3)n2)c1
The melting point of the first is lower: 140 to 142 °C for the first, 173 °C for the second.

Compared with `CCOC(c1ccccc1)(c1ccccc1)c1ncn(S(=O)(=O)N(C)C)c1C`, `Cn1cc(-c2ccccc2)c(=S)c(-c2ccccc2)n1` is lower in melting point: 150 °C for the first, 122 to 123 °C for the second.

First: COc1cc(-n2nc3ccc(Cl)cn3c2=O)c(F)cc1N
Second: CCCCc1cc2c(=O)n3cc(C#N)ccc3nc2s1
The melting point of the first is lower: 138 to 140 °C for the first, 216 to 217 °C for the second.

Compared with `c1ccc(P(c2ccccc2)c2cccc3c2-c2c(cccc2P(c2ccccc2)c2ccccc2)OCCCO3)cc1`, `O=C(O)C(CC=Cc1ccccc1)Cc1cccc2ccccc12` (stereo unspecified) is higher in melting point: 85 °C for the first, 135 to 137 °C for the second.

Compared with `COc1cccc(CC(=O)O)c1OCc1nc(OC(C)C)c(C(=O)NCc2ccc(Cl)cc2Cl)s1`, `O=C(NCCCCc1cccnc1)c1ccc(-c2cccc(O)c2)cc1` is higher in melting point: 113 to 114 °C for the first, 150 to 152 °C for the second.

Compared with `O=C(O)C1CCN(Cc2cc(Br)cc3[nH]c(=O)c(=O)[nH]c23)CC1`, `CC1C(=O)Oc2cc(N3CCCCC3)c(Cl)cc21` (stereo unspecified) is lower in melting point: greater than 300 °C for the first, 108 to 111 °C for the second.

First: CCS(=O)(=O)N(c1cc([N+](=O)[O-])c(F)cc1Br)S(=O)(=O)CC
Second: O=[N+]([O-])c1cc(CCl)ccc1OCc1ccccc1
The melting point of the first is higher: 144 to 146 °C for the first, 60 to 61 °C for the second.

First: Nc1ccc(C2=NNC(=O)Cc3cc4c(cc32)OCO4)cc1
Second: O=C1CCCc2cc(S(=O)(=O)c3ccccc3)ccc21
The melting point of the first is higher: 242 to 244 °C for the first, 121 °C for the second.

First: COC(=O)c1ccc(OC)c(I)n1
Second: CCCc1[nH]c2cc(C(=O)OC)ccc2c1C(=O)C=C(C)C
The melting point of the first is higher: 175 to 178 °C for the first, 146 to 147 °C for the second.

Compared with `Nc1ccc(C(O)C(CO)N2CCC(Cc3ccccc3)CC2)cc1` (stereo unspecified), `NS(=O)(=O)c1cc(C(=O)O)cc(SCc2ccccc2)c1Cl` is higher in melting point: 62 to 68 °C for the first, 241 to 242 °C for the second.

Compared with `CC(C)(C)OC(=O)N(CC#N)CCN(CC#N)C(=O)OC(C)(C)C`, `COCCOCCOCC(=O)Nc1cc(N)cc(C(=O)O)c1` is higher in melting point: 112 to 113 °C for the first, 130 to 131 °C for the second.

First: Oc1cccc(OCc2ccc3ccccc3n2)c1
Second: Cc1cccc(-n2nc(C)cc2-c2ccnc(NCc3ccccc3)c2)c1
The melting point of the first is higher: 151 to 153 °C for the first, 73 to 75 °C for the second.

Compared with `O=C1Nc2cc(Cl)ccc2Cn2nnnc21`, `Cc1cccc2c3c([nH]c12)CCNC3=O` is higher in melting point: 256 to 259 °C for the first, 300 to 302 °C for the second.

First: CN1CCC(c2c[nH]c3ccc(OS(=O)(=O)c4ccccc4F)cc23)CC1
Second: O=C(COc1ccc(O)cc1)N1CCN(CC(O)Cn2c3ccccc3c3ccccc32)CC1 (stereo unspecified)
The melting point of the first is higher: 180 to 182 °C for the first, 155 °C for the second.

Compared with `CNCCON=C1c2ccccc2C2CC2c2ccccc21` (stereo unspecified), `O=C(O)C(O)=CC(=O)c1cn(Cc2ccccc2)c(=O)n(Cc2ccccc2)c1=O` is higher in melting point: 100 to 101 °C for the first, 186 to 188 °C for the second.

Compared with `CCCCNC(=O)[C@@H](C[C@H](O)[C@@H](N)C[C@H](Cc1ccc(OC)c(CCOCOC)c1)C(C)C)C(C)C`, `CCOC(=O)/C=C/c1cc(-n2cnnn2)cc(C)c1N` is higher in melting point: 56 to 58 °C for the first, 210 to 211 °C for the second.

First: COc1cc2c(cc1OC)-c1cc(=O)[nH]c(=O)n1CC2
Second: CC(C)(C)OC(=O)N1CCC(CN2C(=O)C3(COc4cc5c(cc43)CCO5)c3ccccc32)CC1 (stereo unspecified)
The melting point of the first is higher: 323 to 325 °C for the first, 96 to 98 °C for the second.

First: Cn1ncc(C(=O)N2CCOCC2)c1C(=O)Nc1ccn2nc(-c3cccnc3F)nc2c1
Second: Fc1ccc(-c2c(-c3ccncc3)nn3nccnc23)cc1
The melting point of the first is higher: 267 to 269 °C for the first, 177 to 178 °C for the second.

Compared with `Cc1noc(C)c1COc1ccc(C(=O)O)c(O)c1`, `Cc1csc(C(C)(O)c2nc(C)cs2)n1` is lower in melting point: 201 to 203 °C for the first, 82 to 84 °C for the second.

Compound `CCCC(CCC)n1nnc2c(Cl)nc(C)cc21` has a melting point of 90 to 91 °C.
